Entries after “also recorded” stand apart in the source; their conditions may differ.
Experiments:
[1] = tested on: TPCK-treated trypsin (Worthington); test: 0.01 mg mL^–1 trypsin (1 : 100 trypsin : proHD6 (w/w)) in 100 mM Tris–HCl, 20 mM CaCl2, pH 8.0; conditions: room temperature, up to 120 min
[2] = intestinal luminal aspirates obtained by endoscopy (ileal fluid); conditions: human
[3] = biological target: the molecule itself; test: AUC; sedimentation equilibrium; proHD6 30, 60 and 120 μM in 10 mM sodium phosphate pH 7.4, 30 000, 36 000 and 42 000 rpm, 20 °C, global fit with SEDPHAT; monomer to dimer

For AFTCHCRRSCYSTEYSYGTCTVMGINHRFCCL, the not cleaved [1] was “resistant to trypsin-catalyzed degradation”.

In the case of “EPLQAEDDPLQAKAYEADAQEQRGANDQDFAVSFAEDASSSLRALGSTRAFTCHCRRSCYSTEYSYGTCTVMGINHRFCCL”, the cleaved bond [2] is reported as “Arg68-Ala69”, the cleaved bond [1] is reported as “Arg68-Ala69, 1 min” and the fragment found [1] is reported as “EPLQAEDDPLQAK, 1 min; also recorded: GANDQDFAVSFAEDASSSLR, 1 min”.

B1: proHD6 (81-residue propeptide of human α-defensin 6) (natural protein, UniProt Q01524 20-100, looked up)
chain: EPLQAEDDPLQAKAYEADAQEQRGANDQDFAVSFAEDASSSLRALGSTRAFTCHCRRSCYSTEYSYGTCTVMGINHRFCCL
notes: N-terminus EPLQ; Oxidatively folded regioisomer with the three native disulfide bonds (Cys4-Cys31, Cys6-Cys20, Cys10-Cys30, numbers count on mature HD6); Ulp1 cleavage leaves the native 81-residue peptide; also called HD6 propeptide; native proHD6; source: E. coli BL21(DE3) as His6-SUMO-proHD6, purified (Ni-NTA), Ulp1 digestion, reduction, oxidative folding, preparative HPLC; not shown: His6, …
In the case of B1, the “stoichiometry N” value [3] is reported as 2.
